Laboratory results published in patent publication US20230017045A1, “PYRIDINE AND PYRIMIDINE CARBOXYLATE HERBICIDES AND METHODS OF USE THEREOF” (Dow AgroSciences LLC, priority 2017, published 2023).
Like-named read-outs stand apart in the source and are kept apart here.

Test system: test plant species
Test: Post-emergent herbicidal activity test (greenhouse, foliar spray, visual growth reduction)
Format: in vivo
Settings: post-emergence, 336 h, 140 g ai/ha
Experimental: Post-emergent Test: Seeds or nutlets of the desired test plant species were planted in Sun Gro Metro-Mix® 360 planting mixture, which typically has a pH of 6.0 to 6.8 and an organic matter content of about 30 percent, in plastic pots with a surface area of 64 square centimeters. In some aspects, to ensure good germination and healthy plants, a fungicide treatment and/or other chemical or physical treatment was applied. The plants were grown for 7-21 d in a greenhouse with an approximate 15 h photoperiod which was maintained at 23-29° C. during the day and 22-28° C. during the night. Nutrients and water were added on a regular basis and supplemental lighting was provided with overhead metal halide 1000-Watt lamps as necessary. Plants were used for testing when they reached the first or second true leaf stage. A weighed amount, determined by the highest rate to be tested, of each test compound was placed in a 25 mL glass vial and was dissolved in 4 mL of a 97:3 v/v mixture of acetone and DMSO to obtain concentrated stock solutions. […] The concentrated stock solutions obtained were diluted with 20 mL of an aqueous mixture containing acetone, water, isopropyl alcohol, DMSO, […] crop oil concentrate, and X-77 surfactant in a 48.5:39:10:1.5:1.0:0.02 v/v ratio to obtain spray solutions containing the application rate. Compound requirements are based upon a 12 mL application volume at a rate of 187 liters per hectare (L/ha). Formulated compounds were applied to the plant material with an overhead Mandel track sprayer equipped with […] nozzles calibrated to deliver 187 L/ha over an application area of 0.64 square meters at a spray height of 18 inches (43 cm) above the average plant canopy height. Control plants were sprayed in the same manner with the solvent blank. The treated plants and control plants were placed in a greenhouse as described above and watered by subirrigation to prevent wash-off of the test compounds. After 14 d, the condition of the test plants as compared with that of the nontreated and control plants was determined visually and scored on a scale of 0 to 100 percent where 0 corresponds to no injury and 100 corresponds to complete control. In the reporting of the results, Table A: Percent Growth Reduction Conversion Table was used.

[1] = ECHCG: barnyardgrass (Echinochloa crus-galli), 14 days after application, read-out: Visual Growth Reduction (%) 14 Days After Application, ECHCG
[2] = IPOHE: ivy-leaf morning glory (Ipomoea hederacea), 14 days after application, read-out: Visual Growth Reduction (%) 14 Days After Application, IPOHE
[3] = KCHSC: kochia (Bassia scoparia), 14 days after application, read-out: Visual Growth Reduction (%) 14 Days After Application, KCHSC
[4] = ORYSA: rice (Oryza sativa), 14 days after application, read-out: Visual Growth Reduction (%) 14 Days After Application, ORYSA
[5] = SETFA: giant foxtail (Setaria faberi), 14 days after application, read-out: Visual Growth Reduction (%) 14 Days After Application, SETFA
[6] = SORVU: grain sorghum (Sorghum vulgare), 14 days after application, read-out: Visual Growth Reduction (%) 14 Days After Application, SORVU
[7] = STEME: common chickweed (Stellaria media), 14 days after application, read-out: Visual Growth Reduction (%) 14 Days After Application, STEME
[8] = TRZAS: wheat, spring (Triticum aestivum), 14 days after application, read-out: Visual Growth Reduction (%) 14 Days After Application, TRZAS
[9] = blackgrass (Alopecurus myosuroides), 14 Days After Application, read-out: Visual Growth Reduction (%) ALOMY
[10] = crabgrass (Digitaria sanguinalis), 14 Days After Application, read-out: Visual Growth Reduction (%) DIGSA
[11] = lambsquarters (Chenopodium album), 14 Days After Application, read-out: Visual Growth Reduction (%) CHEAL
[12] = redroot pigweed (Amaranthus retroflexus), 14 Days After Application, read-out: Visual Growth Reduction (%) AMARE
[13] = wild oat (Avena fatua), 14 Days After Application, read-out: Visual Growth Reduction (%) AVEFA
[14] = yellow nutsedge (Cyperus esculentus), 14 Days After Application, read-out: Visual Growth Reduction (%) CYPES
[15] = canada thistle (Cirsium arvense), 14 Days After Application, read-out: Visual Growth Reduction (%) CIRAR
[16] = ALOMY: blackgrass (Alopecurus myosuroides), 14 days after application, read-out: Visual Growth Reduction (%) 14 Days After Application, ALOMY
[17] = AMARE: redroot pigweed (Amaranthus retroflexus), 14 days after application, read-out: Visual Growth Reduction (%) 14 Days After Application, AMARE
[18] = AVEFA: wild oat (Avena fatua), 14 days after application, read-out: Visual Growth Reduction (%) 14 Days After Application, AVEFA
[19] = CHEAL: lambsquarters (Chenopodium album), 14 days after application, read-out: Visual Growth Reduction (%) 14 Days After Application, CHEAL
[20] = CIRAR: canada thistle (Cirsium arvense), 14 days after application, read-out: Visual Growth Reduction (%) 14 Days After Application, CIRAR
[21] = CYPES: yellow nutsedge (Cyperus esculentus), 14 days after application, read-out: Visual Growth Reduction (%) 14 Days After Application, CYPES
[22] = DIGSA: crabgrass (Digitaria sanguinalis), 14 days after application, read-out: Visual Growth Reduction (%) 14 Days After Application, DIGSA

Row | Structure (SMILES) | pest or weed control at 140 g/ha [1] [%] | pest or weed control at 140 g/ha [2] [%] | pest or weed control at 140 g/ha [3] [%] | pest or weed control at 140 g/ha [4] [%] | pest or weed control at 140 g/ha [5] [%] | pest or weed control at 140 g/ha [6] [%] | pest or weed control at 140 g/ha [7] [%] | pest or weed control at 140 g/ha [8] [%] | pest or weed control at 140 g/ha [9] [%] | pest or weed control at 140 g/ha [10] [%] | pest or weed control at 140 g/ha [11] [%] | pest or weed control at 140 g/ha [12] [%] | pest or weed control at 140 g/ha [13] [%] | pest or weed control at 140 g/ha [14] [%] | pest or weed control at 140 g/ha [15] [%] | further results
1 | CSc1cc(-c2nc(C(=O)O)c(Cl)cc2F)c(Cl)cc1C(F)(F)F [F342, 3-Chloro-6-(2-chloro-5-(methylthio)-4-(trifluoromethyl)phenyl)-5-fluoropicolinic acid] | 0 to 29 | 85 to 94 | 85 to 94 | 0 to 29 | 30 to 44 | 30 to 44 | 0 to 29 | 30 to 44 | 0 to 29 | 0 to 29 | 60 to 74 | 0 to 29 | 0 to 29 | 0 to 29 | – | –
2 | O=C(O)c1nc(-c2ccc(C(F)(F)F)c(F)c2)ccc1Cl [F315, 3-Chloro-6-(3-fluoro-4-(trifluoromethyl)phenyl) picolinic acid] | 0 to 29 | 95 to 100 | 0 to 29 | 0 to 29 | 60 to 74 | 85 to 94 | 0 to 29 | 60 to 74 | 0 to 29 | 75 to 84 | 60 to 74 | 60 to 74 | 0 to 29 | 60 to 74 | 60 to 74 | –
3 | COC(=O)c1nc(-c2cc(O)c(Cl)cc2F)ccc1Cl [F128, Methyl 3-chloro-6-(4-chloro-2-fluoro-5-hydroxyphenyl) picolinate] | 0 to 29 | 0 to 29 | 0 to 29 | 0 to 29 | 0 to 29 | 0 to 29 | 0 to 29 | 0 to 29 | – | – | – | – | – | – | – | pest or weed control at 140 g/ha [16]: 0 to 29%; pest or weed control at 140 g/ha [17]: 0 to 29%; pest or weed control at 140 g/ha [18]: 0 to 29%; pest or weed control at 140 g/ha [19]: 0 to 29%; pest or weed control at 140 g/ha [20]: 0 to 29%; pest or weed control at 140 g/ha [21]: 0 to 29%; pest or weed control at 140 g/ha [22]: 0 to 29%
4 | N#Cc1cc(C(F)(F)F)cc(Cl)c1-c1ccc(Cl)c(C(=O)O)n1 [F162, 3-Chloro-6-(2-chloro-6-cyano-4-(trifluoromethyl)phenyl)picolinic acid] | 95 to 100 | 95 to 100 | 95 to 100 | 0 to 29 | 85 to 94 | 60 to 74 | 0 to 29 | 45 to 59 | – | – | – | – | – | – | – | pest or weed control at 140 g/ha [16]: 0 to 29%; pest or weed control at 140 g/ha [17]: 95 to 100%; pest or weed control at 140 g/ha [18]: 30 to 44%; pest or weed control at 140 g/ha [19]: 95 to 100%; pest or weed control at 140 g/ha [20]: 85 to 94%; pest or weed control at 140 g/ha [21]: 0 to 29%; pest or weed control at 140 g/ha [22]: 75 to 84%
5 | Cc1c(C(F)(F)F)ccc(-c2ccc(Cl)c(C(=O)O)n2)c1F [F293, 3-Chloro-6-(2-fluoro-3-methyl-4-(trifluoromethyl)phenyl)picolinic acid] | 0 to 29 | 0 to 29 | 0 to 29 | 0 to 29 | 0 to 29 | 0 to 29 | 0 to 29 | 0 to 29 | 0 to 29 | 0 to 29 | 45 to 59 | 0 to 29 | 0 to 29 | 0 to 29 | 30 to 44 | –
6 | COc1cc2c(cc1-c1nc(C(=O)O)c(Cl)cc1F)OC(F)(F)O2 [F344, 3-Chloro-6-(2,2-difluoro-6-methoxybenzo[d][1,3]dioxol-5-yl)-5-fluoropicolinic acid] | 0 to 29 | 95 to 100 | 45 to 59 | 0 to 29 | 60 to 74 | 75 to 84 | 0 to 29 | 45 to 59 | 0 to 29 | 60 to 74 | 30 to 44 | 0 to 29 | 0 to 29 | 0 to 29 | – | –
7 | C=Cc1c(C(F)(F)F)ccc(-c2nc(C(=O)OC)c(Cl)cc2F)c1Cl [F338, Methyl 3-chloro-6-(2-chloro-4-(trifluoromethyl)-3-vinylphenyl)-5-fluoropicolinate] | 0 to 29 | 95 to 100 | 45 to 59 | 0 to 29 | 75 to 84 | 85 to 94 | 0 to 29 | 30 to 44 | 0 to 29 | 60 to 74 | 85 to 94 | 95 to 100 | 30 to 44 | 0 to 29 | – | –
8 | COC(=O)c1nc(-c2ccc(OC(F)(F)F)cc2Cl)c(F)cc1Cl [F210, Methyl 3-chloro-6-(2-chloro-4-(trifluoromethoxy)phenyl)-5-fluoropicolinate] | 60 to 74 | 95 to 100 | 75 to 84 | 0 to 29 | 85 to 94 | 95 to 100 | 0 to 29 | 45 to 59 | 45 to 59 | 85 to 94 | 85 to 94 | 95 to 100 | 60 to 74 | 0 to 29 | 85 to 94 | –
